Experimental data from the supplement of paper PMC11208160.

Experiment: recombinant barcode read abundance after kanamycin selection (control-corrected) (log10(CPM+1)); higher = more efficient recombination; sequences stand for … in AGTGCAGAGAAAATCGGCCAGTTTTCTCTGCCTGCAGTCCGCATGCCGT…ATTTATGCAGCGGACTGCCTTTCTCCCAAAGTGATAAACCGGACAGTATCATGGACCGGTTTTCCCGGTAATCCGTATTTGCAAGGTTGGTTTCACT; site = the 11-nt target
Summary of the method: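 In E. coli, a pooled library matched targets to IS621 bridge RNA target-binding loops and was introduced alongside a donor plasmid. Cells went onto chloramphenicol/ampicillin/kanamycin with 0.1 mM IPTG or onto chloramphenicol/ampicillin LB agar as control, in duplicate. Recombination efficiency, from recombinant-junction barcodes as counts per million, is averaged and control-corrected. It is reported as log10(CPM+1).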

Sequence | recombinant barcode read abundance (log10)
CGGTCCCTGTGGGTTCTAACCTGTTGCCACA [CGGTCCCCTTG_LTGcore_TG_RTGcore_TG] (site CGGTCCCCTTG) (LTG core: TG, RTG core: TG) | 0.175
CGGTCCCTTTGGGTTCTAACCTGTTGCCAAG [CGGTCCCCTTG_LTGcore_TT_RTGcore_CT] (site CGGTCCCCTTG) (LTG core: TT, RTG core: CT) | 0.0132
GAGCCCACTTGGGTTCTAACCTGTTGCCTAT [GAGCCCACTAG_LTGcore_CT_RTGcore_AT] (site GAGCCCACTAG) (LTG core: CT, RTG core: AT) | 0.41
GAGCCCAGCTGGGTTCTAACCTGTTGCCTGC [GAGCCCACTAG_LTGcore_GC_RTGcore_GC] (site GAGCCCACTAG) (LTG core: GC, RTG core: GC) | 0.0674
GAGCCCAGGTGGGTTCTAACCTGTTGCCTAG [GAGCCCACTAG_LTGcore_GG_RTGcore_CT] (site GAGCCCACTAG) (LTG core: GG, RTG core: CT) | 0.181
GAGCCCAGTTGGGTTCTAACCTGTTGCCTAG [GAGCCCACTAG_LTGcore_GT_RTGcore_CT] (site GAGCCCACTAG) (LTG core: GT, RTG core: CT) | 0.0941
GAGCCCATATGGGTTCTAACCTGTTGCCTTA [GAGCCCACTAG_LTGcore_TA_RTGcore_TA] (site GAGCCCACTAG) (LTG core: TA, RTG core: TA) | 0.338
GAGCCCATCTGGGTTCTAACCTGTTGCCTAG [GAGCCCACTAG_LTGcore_TC_RTGcore_CT] (site GAGCCCACTAG) (LTG core: TC, RTG core: CT) | 0.102
GAGCCCATTTGGGTTCTAACCTGTTGCCTAA [GAGCCCACTAG_LTGcore_TT_RTGcore_TT] (site GAGCCCACTAG) (LTG core: TT, RTG core: TT) | 0.178
GAGGCCTCCTGGGTTCTAACCTGTTGCCAGG [GAGGCCTCTTG_LTGcore_CC_RTGcore_CC] (site GAGGCCTCTTG) (LTG core: CC, RTG core: CC) | 0.215
GAGGCCTCTTGGGTTCTAACCTGTTGCCAAA [GAGGCCTCTTG_LTGcore_CT_RTGcore_TT] (site GAGGCCTCTTG) (LTG core: CT, RTG core: TT) | 0.822
GAGGCCTCTTGGGTTCTAACCTGTTGCCAAT [GAGGCCTCTTG_LTGcore_CT_RTGcore_AT] (site GAGGCCTCTTG) (LTG core: CT, RTG core: AT) | 0
GAGGCCTCTTGGGTTCTAACCTGTTGCCACC [GAGGCCTCTTG_LTGcore_CT_RTGcore_GG] (site GAGGCCTCTTG) (LTG core: CT, RTG core: GG) | 0.236
GAGGCCTCTTGGGTTCTAACCTGTTGCCACG [GAGGCCTCTTG_LTGcore_CT_RTGcore_CG] (site GAGGCCTCTTG) (LTG core: CT, RTG core: CG) | 0.128
GAGGCCTCTTGGGTTCTAACCTGTTGCCATT [GAGGCCTCTTG_LTGcore_CT_RTGcore_AA] (site GAGGCCTCTTG) (LTG core: CT, RTG core: AA) | 0.0215
GAGGCCTTTTGGGTTCTAACCTGTTGCCAAG [GAGGCCTCTTG_LTGcore_TT_RTGcore_CT] (site GAGGCCTCTTG) (LTG core: TT, RTG core: CT) | 0.0682
GAGTCCAAGTGGGTTCTAACCTGTTGCGTCT [GAGTCCACTAC_LTGcore_AG_RTGcore_AG] (site GAGTCCACTAC) (LTG core: AG, RTG core: AG) | 0.0337
GAGTCCACCTGGGTTCTAACCTGTTGCGTAG [GAGTCCACTAC_LTGcore_CC_RTGcore_CT] (site GAGTCCACTAC) (LTG core: CC, RTG core: CT) | 0.172
GAGTCCACGTGGGTTCTAACCTGTTGCGTCG [GAGTCCACTAC_LTGcore_CG_RTGcore_CG] (site GAGTCCACTAC) (LTG core: CG, RTG core: CG) | 0.405
